Test results taken from patent publication US20210069194A1, “COMBINATION THERAPY FOR THE TREATMENT OF CANCER” (MingSight Pharmaceuticals, Inc., priority 2018, published 2021).

What was measured:
Human PKC delta = Human PKC delta (Homo sapiens, UniProt Q05655); assay: PKC isoform inhibition in vitro assay, PKC delta; type: biochemical
[1] = test system: IL-6 production in TMD8 cells; assay: IL-6 assay (ELISA) in TMD8 cells; type: cell-based, Human; details: for Inhibition of IL-6 production: TMD8 cells (activating CD79 mutation), 48 hours
Description: (§1) TMD8 cells were grown in MEM media supplemented with 10% fetal calf serum (FCS), non-essential vitamin mix, and penicillin-streptomycin antibiotics (pen-strep). HBL1 cells were grown in RPMI-1640 media supplemented with 10% FCS and pen-strep. OCI-Ly3 cells were grown in DMEM media with 15% FCS, non-essential vitamin mix, pen-strep, and 25 mM HEPES buffer. Cells were maintained in suspension culture, fed twice weekly, and split 1:3 approximately every two weeks (TMD8, OCI-Ly3) or weekly (HBL1).
(§2) Cells were harvested via centrifugation and resuspended twice to rinse the media of any IL-6. Cells were then plated in 96 well plates at 5×10^5 cells per well and exposed to increasing concentrations of Compound A, sotrastaurin, or media containing 0.1% DMSO (negative control). For each cell type, experiments were performed in the media used for growth and maintenance. Cells were allowed to grow for 48 hours after plating in the presence of inhibitors. Following compound exposure, cells were pelleted in the 96 well plate, supernatant was removed, and the concentration of IL-6 in the supernatant was determined using R&D Systems Haman IL-6 Quantikine® ELISA Kit (D6050) according to manufacturer's instructions.

[2] = test system: IL-6 production in HBL1 cells; assay: IL-6 assay (ELISA) in HBL1 cells; type: cell-based, Human; details: HBL1 cells (activating CD79 mutation), 48 hours, data not shown
[3] = test system: IL-6 production in OCI-Ly3 cells; assay: IL-6 assay (ELISA) in OCI-Ly3 cells; type: cell-based, Human; details: OCI-Ly3 cells (no activating CD79 mutation), 48 hours
Description: as §1, §2

TMD8 cells [4] = assay: Cell proliferation and survival assay (MTT), TMD8; type: cell-based, Human; details: for Inhibition of cell proliferation and survival: TMD8 cells, MTT, 96 hours
Description: (§3) TMD8 cells were grown in MEM media supplemented with 10% fetal calf serum (FCS), non-essential vitamin mix, and penicillin-streptomycin antibiotics (pen-strep). HBL1 cells were grown in RPMI-1640 media supplemented with 10% FCS and pen-strep. OCI-Ly3 cells were grown in DMEM media with 15% FCS, non-essential vitamin mix, pen-strep, and 25 mM HEPES buffer. Cells were maintained in suspension culture, fed twice weekly, and split 1:3 approximately every two weeks (TMD8, OCI-Ly3) or weekly (HBL1). Cells were cultured and maintained as described above, with cells always fed on the day prior to assay. Proliferation and survival of cells was quantified using an MTT assay kit according to manufacturer's instructions (Cell Proliferation Kit 1, Roche Diagnostics, Cat. No. 11 465 007 001). Experiments were performed in the same media used by each cell type for growth and maintenance. Cells (5×10^4) were plated in 96 well plates and allowed to grow for 96 hours in the presence of inhibitors. After the exposure period was completed, MTT reagent was added for 3-4 hours. The MTT solubilization reagent was then added to stop the reaction and cells were incubated overnight at 37° C. The plate read the next day according to the kit instructions.

HBL1 cells = assay: Cell proliferation and survival assay (MTT), HBL1; type: cell-based, Human; details: 96 hours, data not shown
OCI-Ly3 cells = assay: Cell proliferation and survival assay (MTT), OCI-Ly3; type: cell-based, Human; details: 96 hours
Description: as §3

TMD8 cells [5] = assay: TMD8 mouse xenograph model of DLBCL, tumor volume; type: in vivo, SCID mice; details: 120 mg/kg BID
Description: (§4) To test the efficacy of Compound A in vivo, TMD8 cells were grown and subcutaneously injected into SCID mice. Large scale suspension culture of TMD8 cells was performed in T250 flasks, where cells were expanded weekly. Animals (n=24) were inoculated with 10×10^6 cells (10×10^6 cells in 100 μL volume of 50% Matrigel®) subcutaneously in the animal's right flank.

[6] = TMD8 mouse xenograph model of DLBCL, body weight; type: in vivo, SCID mice; details: 120 mg/kg BID
Description: as §4

circulating lymphocytes = assay: Peripheral lymphocyte levels in healthy humans, multiple ascending dose study; type: in vivo, human; details: healthy humans, 50, 100, 150, 200 mg BID, 14 days
Description: Normal, healthy human patients received various doses of Compound A for 14 days of dosing. The dose levels were as follows: cohort 1: 50 mg, BID; cohort 2: 100 mg, BID; cohort 3, 150 mg, BID; and cohort 4,200 mg BID.

Sequence of Human PKC delta (Q05655 whole entry, canonical isoform): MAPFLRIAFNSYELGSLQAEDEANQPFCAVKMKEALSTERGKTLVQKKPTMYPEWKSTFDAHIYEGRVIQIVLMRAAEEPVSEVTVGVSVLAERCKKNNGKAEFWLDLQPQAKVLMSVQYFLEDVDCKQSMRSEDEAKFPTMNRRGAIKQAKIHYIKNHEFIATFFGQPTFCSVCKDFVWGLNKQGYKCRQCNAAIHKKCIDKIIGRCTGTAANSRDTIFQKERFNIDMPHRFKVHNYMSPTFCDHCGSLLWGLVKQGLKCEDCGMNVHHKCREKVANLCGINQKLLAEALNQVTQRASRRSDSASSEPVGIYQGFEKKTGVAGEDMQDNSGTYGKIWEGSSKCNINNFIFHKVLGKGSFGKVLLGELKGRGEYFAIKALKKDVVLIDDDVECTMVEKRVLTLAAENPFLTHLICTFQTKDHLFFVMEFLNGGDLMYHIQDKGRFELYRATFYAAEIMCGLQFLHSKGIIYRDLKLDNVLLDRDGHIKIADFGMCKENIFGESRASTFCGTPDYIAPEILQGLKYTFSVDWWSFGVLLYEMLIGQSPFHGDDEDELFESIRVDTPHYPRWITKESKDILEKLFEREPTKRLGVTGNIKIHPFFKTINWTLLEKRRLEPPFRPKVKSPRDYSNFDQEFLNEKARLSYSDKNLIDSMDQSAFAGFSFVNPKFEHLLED

SMILES | Inhibition of PKC delta (in words) (Human PKC delta) | Potency compared to sotrastaurin, IL-6 assay [1] | Inhibition of IL-6 production [1] | Inhibition of IL-6 production [2] | Inhibition of IL-6 production [3] | Potency compared to sotrastaurin, cell proliferation assay (TMD8 cells [4]) | Inhibition of cell proliferation and survival (TMD8 cells [4]) | Inhibition of cell proliferation and survival (HBL1 cells) | Inhibition of cell proliferation and survival (OCI-Ly3 cells) | Mean tumor volume (TMD8 cells [5]; study day 20) [mm^3] | Mean tumor volume (TMD8 cells [5]; study day 28) [mm^3] | Increase of mean tumor volume (TMD8 cells [5]; study days 20 to 28) [%] | Tumor growth (in words) (TMD8 cells [5]; study days 20 to 28) | Mean weight of vehicle treated group greater than Compound A treated animals by [6] [g] | Body weight change ([6]; day 24-28) | Number of circulating lymphocytes (circulating lymphocytes)
Cc1ncc(F)c(Nc2n[nH]c3c2CN(C(=O)N2C[C@@H](C)N(CC4CCOCC4)C[C@@H]2C)C3(C)C)n1 [Compound A, 5-{[(2S,5R)-2,5-Dimethyl-4-(tetrahydro-2H-pyran-4-ylmethyl)piperazin-1-yl]carbonyl}-N-(5-fluoro-2-methylpyrimidin-4-yl)-6,6-dimethyl-1,4,5,6-tetrahydropyrrolo[3,4-c]pyrazol-3-amine] | does not inhibit PKC delta to any appreciable degree | slightly more potent | dose-dependent inhibition | dose-dependent inhibition | not affected | modestly more potent | dose-dependent inhibition | dose-dependent inhibition | not affected by either compound except at the highest doses tested | 898 | 970 | 8 | no appreciable amounts of tumor growth | 1.8 | no increase in body weight | dose dependent increase
CN1CCN(c2nc(C3=C(c4c[nH]c5ccccc45)C(=O)NC3=O)c3ccccc3n2)CC1 [sotrastaurin, reference compound] |  |  | dose dependent inhibition |  | not affected |  | dose dependent inhibition |  | not affected by either compound except at the highest doses tested |  |  |  |  |  |  | 
